# Results from patent publication US7074780B2, “Substituted phenylcyclohexanecarboxamides and their use” (Bayer Aktiengesellschaft, priority 2000, dated 2006).
# System: adenosine-uptake system
# Test: Inhibition of the adenosine uptake in rabbit erythrocytes
# Type: cell-based
# Settings: Oryctolagus cuniculus, 0.25 h; rabbit erythrocyte preparation; concentration at which 50% of the adenosine originally employed is still present 15 min after addition of adenosine; 30° C.; read-out: IC50 (inhibition of functional adenosine uptake)
# Procedure: 2. Inhibition of the Adenosine Uptake in Rabbit Erythrocytes by the Compounds According to the Invention
# The capability of substances to influence the adenosine-uptake system is investigated by determining the inhibitory effect of the substances on functional adenosine uptake.
# For the functional adenosine-uptake test, an erythrocyte preparation from rabbit blood is used. The blood is drawn intravenously using citrate (3 ml Monovette 9NC from Sarstedt) as anticoagulant. The blood is centrifuged at 3000 g for 5 min and the erythrocytes are suspended in 10 mM 3-(N-morpholino)propanesulphonic acid buffer (MOPS)/0.9% NaCL solution pH7.4. The suspension is diluted to one hundredth of the original blood volume. In each case, 990 μl of the suspension are admixed with 10 μl of a suitable concentration of the substance to be investigated, and the mixture is incubated at 30° C. for 5 min. 5 μl of a 4 mM adenosine solution are then added, and the mixture is incubated at 30° C. for another 15 min. The samples are then centrifuged at 3000 g for 5 min and in each case 700 μl of the supernatant are admixed with 28 μl of 70% strength HClO4, allowed to stand in an ice bath for 30 min and centrifuged at 16,000 g for 3 min, and 350 μl of the sample are neutralized using 30 μl of 5N NaOH. 50 μl of the sample are applied to a column (Waters Symmetry C18 5 μm 3.9×150 mm). A Spherisorb ODS II 5 μm 4.6×10 mm column is used as precolumn. The mobile phase used is a gradient of […] KH2PO4/5 mM tributylamine pH7 (mobile phase A) and a mixture of mobile phase A/methanol 1/1 (mobile phase B). The gradient is from 10 to 40% B, at a flow rate of 0.5 ml/min. The adenosine which is present is quantified by its absorption at 260 nm, as are the hypoxanthine and inosine formed. The IC50 is the concentration of active compound at which, 15 min after addition of adenosine, 50% of the adenosine concentration originally employed is still present.
row,SMILES,IC50
1,"NC(=O)[C@@H](NC(=O)[C@@H]1CCCC[C@H]1c1ccc(CN(C(=O)N2CCOCC2)c2ccccc2)cc1)c1ccccc1 [Example 1-1, N-{4-[(1R,2R)-2-({[(1S)-2-Amino-2-oxo-1-phenylethyl]amino}carbonyl)cyclohexyl]benzyl}-N-phenyl-4-morpholinecarboxamide]",30 nM
2,CN(C)C(=O)N(Cc1ccc([C@@H]2CCCC[C@H]2C(=O)N[C@H](C(N)=O)c2ccccc2)cc1)c1ccccc1 [Example 1-3],20 nM
3,CN(C)C(=O)N(Cc1ccc([C@@H]2CCCC[C@H]2C(=O)N[C@H](C(N)=O)c2ccccc2)cc1)C1CC1 [Example 1-14],30 nM
4,CCN(CC)C(=O)N(Cc1ccc([C@@H]2CCCC[C@H]2C(=O)N[C@H](C(N)=O)c2ccccc2)cc1)c1ccccn1 [Example 1-33],40 nM
5,"CCN(CCO)C(=O)N(Cc1ccc([C@@H]2CCCC[C@H]2C(=O)N[C@H](C(N)=O)c2ccc(F)cc2)cc1)c1ccc(F)cc1 [Example 2-1, (1R,2R)-N-[(1S)-2-Amino-1-(4-fluorophenyl)-2-oxoethyl]-2-(4-{[{[ethyl(2-hydroxyethyl)amino]carbonyl}(4-fluorophenyl)amino]methyl}phenyl)cyclohexanecarboxamide]",20 nM
6,"CCN(CCO)C(=O)N(Cc1ccc([C@@H]2CCCC[C@H]2C(=O)N[C@H](C(N)=O)c2ccccc2)cc1)c1ccccc1 [Example 2-18, (1R,2R)-N-[(1S)-2-Amino-1-phenyl-2-oxoethyl]-2-(4-{[{[ethyl(2-hydroxyethyl)-amino]carbonyl}(phenyl)amino]methyl}phenyl)cyclohexanecarboxamide]",20 nM
